Molecular target: T1, aldosterone synthase (CYP11B2) (Homo sapiens, UniProt P19099)
T1 sequence (P19099 25-503): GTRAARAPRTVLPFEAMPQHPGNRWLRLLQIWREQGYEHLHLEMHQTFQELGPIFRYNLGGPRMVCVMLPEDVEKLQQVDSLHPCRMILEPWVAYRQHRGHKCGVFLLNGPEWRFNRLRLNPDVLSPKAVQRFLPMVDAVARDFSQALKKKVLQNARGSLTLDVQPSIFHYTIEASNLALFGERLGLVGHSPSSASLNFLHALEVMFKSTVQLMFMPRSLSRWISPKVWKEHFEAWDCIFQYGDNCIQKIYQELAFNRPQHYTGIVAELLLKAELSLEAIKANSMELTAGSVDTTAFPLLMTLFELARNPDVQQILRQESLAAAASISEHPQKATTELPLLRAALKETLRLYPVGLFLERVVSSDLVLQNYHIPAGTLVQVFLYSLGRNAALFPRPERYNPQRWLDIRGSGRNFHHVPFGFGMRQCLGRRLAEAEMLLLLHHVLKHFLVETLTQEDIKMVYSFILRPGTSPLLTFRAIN
Test: aldosterone production by cells expressing the recombinant enzyme
Assay type: cell-based

Ki: 13 nM
SMILES: CCC(=O)N[C@@H]1CCCc2c(-c3ccc4c(c3)CCC(=O)N4C)cncc21 [RO6836191]
